Legend:
Type in all cases: physicochemical
[1] = Influencing factor test: stability to light; conditions: illumination 5000 Lx·hr, open weighing bottle
Experimental: (§1) The HPLC conditions for the determination of the crystal form A of the compound TY706 and its raw material in the present invention were as follows: chromatographic column: C18, 5 μu, Φ4.6×150 mm, Waters Atlantis T3; mobile phase A: acetonitrile-methanol=9:1, mobile phase B: 10 mM diammonium hydrogen phosphate (pH was adjusted to 4.30±0.03 with phosphoric acid), gradient elution (Table 2); detection wavelength: 225 nm; column temperature: 35° C.; flow rate: 1.0 mL/min; sample concentration: 0.3 mg/mL; injection volume: 15 μL; solvent for dissolving: phosphate buffer (pH 7.8-8.0; prepared by dissolving 5.59 g of dipotassium hydrogen phosphate and 0.41 g of potassium dihydrogen phosphate by adding water to a volume of 1000 mL).
(§2) The sample of the crystal form A of TY706 prepared in Example 1 and the raw material for the preparation of the crystal form A were simultaneously subjected to influencing factor tests, and they were respectively placed under the conditions of illumination (5000 Lx·hr, with the weighing bottle being placed open), high heat (60° C., with the weighing bottle being placed open), and high humidity (92.5% RH, with the weighing bottle being placed open) for 14 days, and the appearance and the number and total amount of impurities (determined by HPLC) were compared with those measured on day 0, and the results are shown in Table 5-7.

[2] = Influencing factor test: stability to high heat; conditions: high heat 60° C., open weighing bottle
Experimental: as §1, §2

[3] = Influencing factor test: stability to high humidity; conditions: high humidity 92.5% RH, open weighing bottle
Experimental: as §1, §2

SMILES | Appearance ([1]; day 0) | Number of impurities ([1]; day 0, HPLC) | Total amount of impurities ([1]; day 0, HPLC) [%] | Appearance ([1]; day 7) | Number of impurities ([1]; day 7, HPLC) | Total amount of impurities ([1]; day 7, HPLC) [%] | Appearance ([1]; day 14) | Number of impurities ([1]; day 14, HPLC) | Total amount of impurities ([1]; day 14, HPLC) [%] | Appearance ([2]; day 0) | Number of impurities ([2]; day 0, HPLC) | Total amount of impurities ([2]; day 0, HPLC) [%] | Appearance ([2]; day 7) | Number of impurities ([2]; day 7, HPLC) | Total amount of impurities ([2]; day 7, HPLC) [%] | Appearance ([2]; day 14) | Number of impurities ([2]; day 14, HPLC) | Total amount of impurities ([2]; day 14, HPLC) [%] | Appearance ([3]; day 0) | Number of impurities ([3]; day 0, HPLC) | also measured
O=C(O)CSc1nnc(Br)n1Cc1ccc(Br)c2ccccc12 [Crystal form A of TY706] | White solid | 4 | 0.24 | White solid | 6 | 0.28 | White solid | 7 | 0.41 | White solid | 4 | 0.24 | White solid | 4 | 0.25 | White solid | 5 | 0.26 | White solid | 4 | Total amount of impurities ([3]; day 0, HPLC): 0.24%; Appearance ([3]; day 7): White solid; Number of impurities ([3]; day 7, HPLC): 4; Total amount of impurities ([3]; day 7, HPLC): 0.24%; Appearance ([3]; day 14): White solid; Number of impurities ([3]; day 14, HPLC): 4; Total amount of impurities ([3]; day 14, HPLC): 0.25%
O=C(O)CSc1nnc(Br)n1Cc1ccc(Br)c2ccccc12 [TY706 raw material] | White solid | 11 | 0.69 | White solid | 13 | 1.13 | Light yellow | 25 | 2.68 | White solid | 11 | 0.69 | White solid | 12 | 0.78 | White solid | 15 | 1.19 | White solid | 11 | Total amount of impurities ([3]; day 0, HPLC): 0.69%; Appearance ([3]; day 7): White solid; Number of impurities ([3]; day 7, HPLC): 12; Total amount of impurities ([3]; day 7, HPLC): 0.72%; Appearance ([3]; day 14): White solid; Number of impurities ([3]; day 14, HPLC): 14; Total amount of impurities ([3]; day 14, HPLC): 0.84%

Source: patent publication US11149013B2, “Crystal form of urate transporter 1 inhibitor and preparation method and use thereof” (Tianjin Institute of Pharmaceutical Research Co., Ltd., priority 2018, dated 2021)
